PubChem BioAssay (NCI)
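Five concentrations, 48 hours, 96-well plates. GI50 is the concentration that inhibits growth by half. Definition used: TGI = concentration required for complete inhibition of growth.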

Columns and labels:
Assay in all cases: NCI tumour cell line growth inhibition, 48 h
[1] = system: RPMI-8226 leukemia
[2] = system: MOLT-4 leukemia
[3] = system: ACHN renal
[4] = system: SK-MEL-2 melanoma
[5] = system: HOP-92 NSCLC
[6] = system: NCI/ADR-RES ovarian
[7] = system: HT29 colon
[8] = system: OVCAR-3 ovarian
[9] = system: EKVX NSCLC
[10] = system: UACC-257 melanoma
[11] = system: PC-3 prostate
[12] = system: HL-60(TB) leukemia
[13] = system: SR leukemia
[14] = system: SF-539 CNS
[15] = system: KM12 colon
[16] = system: SK-MEL-28 melanoma
[17] = system: CAKI-1 renal
[18] = system: OVCAR-4 ovarian
[19] = system: T-47D breast
[20] = system: MALME-3M melanoma
[21] = system: HCC-2998 colon
[22] = system: IGROV1 ovarian
[23] = system: MDA-MB-231 breast
[24] = system: SF-295 CNS
[25] = system: RXF 393 renal
[26] = system: NCI-H460 lung
[27] = system: HCT-15 colon
[28] = system: OVCAR-8 ovarian
[29] = system: A498 renal
[30] = system: U251 CNS
[31] = system: 786-0 renal
[32] = system: HS 578T breast
[33] = system: TK-10 renal
[34] = system: MCF7 breast
[35] = system: BT-549 breast
[36] = system: SW-620 colon
[37] = system: CCRF-CEM leukemia
[38] = system: LOX IMVI melanoma
[39] = system: K-562 leukemia
[40] = system: A549 NSCLC
[41] = system: SN12C renal
[42] = system: OVCAR-5 ovarian
[43] = system: NCI-H226 lung
[44] = system: NCI-H23 lung
[45] = system: SNB-19 CNS
[46] = system: NCI-H522 lung
[47] = system: MDA-MB-435
[48] = system: COLO 205 colon
[49] = system: HOP-62 NSCLC
[50] = system: SF-268 CNS

In the case of `CC[C@@]1(OC(=O)CN)C(=O)OCc2c1cc1n(c2=O)Cc2cc3c(N)cccc3nc2-1`, the GI50 [1] is reported as 47.4 nM, the GI50 [2] is reported as less than 10 nM and the TGI [2] is reported as 27.7 µM. It also gave a GI50 [3] of less than 10 nM, a TGI [3] of 28.7 nM and a GI50 [4] of 132 nM. The TGI [4] was 490 nM, the GI50 [5] was 37.1 nM and the TGI [5] was greater than 100 µM. The GI50 [6] was less than 10 nM, the TGI [6] was 258 nM and the GI50 [7] was 34.6 nM. It also gave a TGI [7] greater than 100 µM, a GI50 [8] of 74.9 nM and a TGI [8] of 3.77 µM. For the same compound, the GI50 [9] was 265 nM, the TGI [9] was greater than 100 µM and the GI50 [10] was 77.4 nM. The TGI [10] was 1500 nM, the GI50 [11] was 160 nM and the TGI [11] was greater than 100 µM. The GI50 [12] was less than 10 nM, the GI50 [13] was less than 10 nM and the GI50 [14] was less than 10 nM. The TGI [14] was less than 15.3 nM, the GI50 [15] was 158 nM and the TGI [15] was 1920 nM. It also gave a GI50 [16] of 557 nM, a TGI [16] greater than 20.1 µM and a GI50 [17] of less than 10 nM. It also gave a TGI [17] of 582 nM, a GI50 [18] of 211 nM and a TGI [18] of 3.32 µM. It also gave a GI50 [19] of less than 10 nM, a TGI [19] greater than 100 µM and a GI50 [20] of 47.3 nM. The TGI [20] was 1750 nM, the GI50 [21] was 84 nM and the TGI [21] was 782 nM. The GI50 [22] was 115 nM, the GI50 [23] was 1430 nM and the TGI [23] was greater than 21.5 µM. It also gave a GI50 [24] of less than 10 nM, a TGI [24] of 49.7 nM and a GI50 [25] of 35.2 nM. For the same compound, the TGI [25] was 476 nM, the GI50 [26] was less than 10 nM and the TGI [26] was 114 nM. The GI50 [27] was 249 nM, the TGI [27] was greater than 100 µM and the GI50 [28] was less than 10 nM. It also gave a TGI [28] of 153 nM, a GI50 [29] of less than 16 nM and a TGI [29] of 156 nM. The GI50 [30] was less than 10 nM, the TGI [30] was 405 nM and the GI50 [31] was less than 10 nM. For the same compound, the TGI [31] was 203 nM, the GI50 [32] was greater than 100 µM and the TGI [32] was greater than 100 µM. The GI50 [33] was 1310 nM, the TGI [33] was greater than 21.6 µM and the GI50 [34] was less than 10 nM. It also gave a TGI [34] greater than 100 µM, a GI50 [35] of 37.2 nM and a TGI [35] of 1630 nM. The GI50 [36] was 24.7 nM, the TGI [36] was 3.78 µM and the GI50 [37] was less than 10 nM. It also gave a TGI [37] greater than 100 µM, a GI50 [38] of less than 10 nM and a TGI [38] of 48.6 nM. It also gave a GI50 [39] of less than 36.7 nM, a GI50 [40] of less than 12.9 nM and a TGI [40] of 1770 nM. It also gave a GI50 [41] of less than 10 nM, a TGI [41] of 1100 nM and a GI50 [42] of 45 nM. It also gave a TGI [42] of 1120 nM, a GI50 [43] of 21.6 nM and a TGI [43] of 498 nM. The GI50 [44] was less than 10 nM, the TGI [44] was 76.5 nM and the GI50 [45] was less than 10 nM. For the same compound, the TGI [45] was greater than 100 µM, the GI50 [46] was less than 10 nM and the TGI [46] was 1310 nM. The GI50 [47] was 47.6 nM, the TGI [47] was 336 nM and the GI50 [48] was 392 nM. It also gave a TGI [48] of 2660 nM, a GI50 [49] of less than 10 nM and a GI50 [50] of less than 10 nM. For the same compound, the TGI [50] was greater than 100 µM.
